Earlier results as cited in US9040545B2, “Heterocyclyl pyrazolopyrimidine analogues as selective JAK inhibitors” (Cellzome Limited, priority 2010, dated 2015).

Legend:
[1] = NOD mouse, literature; cited from earlier work
[2] = literature; cited from earlier work
[3] = literature; cited from earlier work; remark: listed apart in the source

| SMILES | spontaneous autoimmune diabetes development [1] | severity of GVHD [2] | efficacy in an animal model of organ transplantation [3] |
| --- | --- | --- | --- |
| COc1cc2ncnc(Nc3ccc(O)cc3)c2cc1OC [JANEX-1] | prevent spontaneous autoimmune diabetes development | attenuate the severity of GVHD | – |
| C[C@@H]1CCN(C(=O)CC#N)C[C@@H]1N(C)c1ncnc2[nH]ccc12 [CP-690,550] | – | – | efficacy |
